Columns and labels:
[1] = biological target: Casein kinase II subunit alpha (Homo sapiens, UniProt P68400); assay: Binding affinity to wild type full length human CK2alpha1 (1 to 391 residues) expressed in mammalian expression system assessed as change in melting temperature at 10 uM by SYPRO orange dye based DSF assay
[2] = biological target: T1, Serine/threonine-protein kinase 17A (Homo sapiens, UniProt Q9UEE5); assay: Inhibition of human N-terminal His-tagged/ TEV cleavage fused DRAK1 (39 to 369 residues) transfected in HEK293T cells using NanoBRET NanoGlo as substrate incubated for 2 hrs by NanoBRET assay; assay type: cell-based
T1 sequence (Q9UEE5 whole entry): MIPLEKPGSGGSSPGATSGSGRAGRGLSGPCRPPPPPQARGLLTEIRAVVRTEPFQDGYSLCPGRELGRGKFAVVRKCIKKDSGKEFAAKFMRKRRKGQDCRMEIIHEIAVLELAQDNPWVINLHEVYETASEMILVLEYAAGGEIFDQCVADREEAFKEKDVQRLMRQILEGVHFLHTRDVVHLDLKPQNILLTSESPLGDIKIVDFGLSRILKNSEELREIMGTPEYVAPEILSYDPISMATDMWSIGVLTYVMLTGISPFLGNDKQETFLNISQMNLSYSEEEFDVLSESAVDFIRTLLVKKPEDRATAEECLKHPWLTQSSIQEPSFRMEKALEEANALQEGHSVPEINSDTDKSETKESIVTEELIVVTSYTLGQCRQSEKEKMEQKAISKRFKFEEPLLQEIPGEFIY

[3] = Binding affinity to wild type full length human CK2alpha2 (1 to 350 residues) expressed in mammalian expression system assessed as change in melting temperature by SYPRO orange dye based DSF assay
[4] = biological target: T2, Serine/threonine-protein kinase 17A (Homo sapiens) (UniProt Q9UEE5); assay: Binding affinity to human N-terminal His-tagged/ TEV cleavage fused DRAK1 (39 to 369 residues) expressed in Escherichia coli assessed as change in melting temperature at 10 uM by SYPRO orange dye based DSF assay
T2 sequence (whole entry): T1 sequence (Q9UEE5 whole entry)

[5] = biological target: T1, Serine/threonine-protein kinase 17A; assay: Inhibition of human N-terminal His-tagged/ TEV cleavage fused DRAK1 (39 to 369 residues) expressed in Escherichia coli using KKLNRTLSFAEPG peptide as substrate in presence of [gamma-33P]ATP by radiometric based scintillation proximity assay

Chain of Casein kinase II subunit alpha (P68400 whole entry, looked up, the tested form may be a part): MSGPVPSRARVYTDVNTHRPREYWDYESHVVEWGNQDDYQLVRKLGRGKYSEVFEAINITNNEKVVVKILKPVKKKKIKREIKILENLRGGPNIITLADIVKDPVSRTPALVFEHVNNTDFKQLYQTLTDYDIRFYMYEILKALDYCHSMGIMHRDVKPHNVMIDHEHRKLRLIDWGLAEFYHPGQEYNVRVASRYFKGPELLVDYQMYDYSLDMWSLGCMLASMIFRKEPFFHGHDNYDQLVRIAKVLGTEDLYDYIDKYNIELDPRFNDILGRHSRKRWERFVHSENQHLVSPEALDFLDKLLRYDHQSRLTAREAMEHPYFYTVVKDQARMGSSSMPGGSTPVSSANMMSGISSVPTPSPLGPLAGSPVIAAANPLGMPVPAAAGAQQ

ΔTm [1] [°C] | IC50 [2] [nM] | ΔTm [3] [°C] | ΔTm [4] [°C] | IC50 [5] [nM] | SMILES
0.3 | > 45000 | 0.9 | – | – | CN1CCN(C(=O)c2ccc3cc2OCCOCCNc2ccn4ncc-3c4n2)CC1
10.6 | – | 11.3 | 7.9 | – | O=C(O)c1ccc2cc1OCCOCCNc1ccn3ncc-2c3n1
1.1 | > 45000 | 2.5 | 3 | – | O=C(c1ccc2cc1OCCOCCNc1ccn3ncc-2c3n1)N1CCOCC1
1.7 | 171 | 4.9 | 9.3 | 155 | O=C(NCc1ccccc1)c1ccc2cc1OCCOCCNc1ccn3ncc-2c3n1

Reference: ChEMBL document CHEMBL5154923 (J Med Chem, 2022)
